ChEMBL document CHEMBL1800027, “Imidazolopiperazines: hit to lead optimization of new antimalarial agents” (J Med Chem, 2011)
Each block holds one compound with its values, some of them ahead of it.

Assays:
Plasmodium falciparum [1] = experiment: Antimalarial activity against Plasmodium falciparum 3D7 infected in human erythrocytes assessed as decrease in parasitemia after 72 hrs; assay type: functional, organism-based; conditions: 3D7, 72 h
Plasmodium falciparum [2] = experiment: Antimalarial activity against Plasmodium falciparum W2 infected in human erythrocytes assessed as decrease in parasitemia after 72 hrs; assay type: functional, organism-based; conditions: W2, 72 h
in vitro [3] = conditions: human
Description: Metabolic stability in human hepatic microsomes assessed as extraction ratio by LC/MS/MS analysis

in vitro [4] = conditions: human, Caco-2
Description: Apparent permeability from basolateral to apical side in human Caco2 cells by LC/MS analysis

[5] = pampa
Description: Permeability of the compound assessed as amount of compound absorbed by PAMPA method

in vitro [6] = conditions: rat
Description: Metabolic stability in rat hepatic microsomes assessed as extraction ratio by LC/MS/MS analysis

in vitro [7] = conditions: mouse
Description: Metabolic stability in mouse hepatic microsomes assessed as extraction ratio by LC/MS/MS analysis

in vitro [8] = conditions: human, Caco-2; remark: listed apart in the source
Description: Apparent permeability from apical to basolateral side in human Caco2 cells by LC/MS analysis

[9] = Oral bioavailability in female CD1 mouse at 30 mg/kg by LC/MS/MS analysis; conditions: female, CD1, mouse, in vivo
in vivo [10] = conditions: female, CD1, mouse, po, 30 mg/kg
Description: Half life in female CD1 mouse at 20 mg/kg, po by LC/MS/MS analysis

Plasmodium berghei [11] = experiment: Antimalarial activity against GFP-tagged Plasmodium berghei ANKA infected in NMRI mouse assessed as mouse survival at 30 mg/kg, po administered as single dose 24 hrs post infection measured 72 hrs post infection
in vivo [12] = conditions: female, CD1, mouse, iv, 5 mg/kg
Description: Clearance in female CD1 mouse at 5 mg/kg, iv by LC/MS/MS analysis

in vivo [13] = conditions: female, CD1, mouse, plasma, iv, 5 mg/kg
Plasmodium berghei [14] = experiment: Antimalarial activity against GFP-tagged Plasmodium berghei ANKA infected in NMRI mouse assessed as mouse survival at 100 mg/kg, po administered as single dose 24 hrs post infection measured on day 30 post infection
in vivo [15] = conditions: female, CD1, mouse, iv, 5 mg/kg; remark: listed apart in the source
Description: Volume of distribution in female CD1 mouse at 5 mg/kg, iv by LC/MS/MS analysis

[16] = Tmax in female CD1 mouse at 30 mg/kg, po by LC/MS/MS analysis; conditions: in vivo
[17] = biological target: Voltage-gated inwardly rectifying potassium channel KCNH2 (Homo sapiens, UniProt Q12809)
Description: Inhibition of human ERG expressed in CHO cells by Q-patch assay

in vivo [18] = conditions: female, CD1, mouse, iv, 5 mg/kg; remark: listed apart in the source
Description: Half-life in female CD1 mouse at 5 mg/kg, iv by LC/MS/MS analysis

in vivo [19] = conditions: female, CD1, mouse, plasma, po, 30 mg/kg
[20] = Cmax in female CD1 mouse at 30 mg/kg, po by LC/MS/MS analysis; conditions: in vivo
Plasmodium berghei [21] = experiment: Antimalarial activity against GFP-tagged Plasmodium berghei ANKA infected in NMRI mouse assessed as reduction in parasitemia at 30 mg/kg, po QD administered 24 hrs post infection for 3 days measured on day 4 post infection; assay type: functional; parameters: scale not given: the % may be the effect or the level left
Plasmodium berghei [22] = experiment: Antimalarial activity against GFP-tagged Plasmodium berghei ANKA infected in NMRI mouse assessed as reduction in parasitemia at 30 mg/kg, po administered as single dose 24 hrs post infection measured 72 hrs post infection; assay type: functional; parameters: scale not given: the % may be the effect or the level left
[23] = Selectivity index, ratio TC50 for human HuH7 cells to IC50 for Plasmodium falciparum; assay type: functional, Huh-7
[24] = Selectivity index, ratio TC50 for human HeLa cells to IC50 for Plasmodium falciparum; assay type: functional
[25] = Cytotoxicity against human HuH7 cells; assay type: cell-based; conditions: Huh-7 cells, read-out: TC50 (the source's name)
Plasmodium berghei [26] = experiment: Antimalarial activity against GFP-tagged Plasmodium berghei ANKA infected in NMRI mouse assessed as mouse survival at 30 mg/kg, po QD administered 24 hrs post infection for 3 days measured on day 30 post infection; assay type: functional

Voltage-gated inwardly rectifying potassium channel KCNH2, sequence (Q12809 whole entry): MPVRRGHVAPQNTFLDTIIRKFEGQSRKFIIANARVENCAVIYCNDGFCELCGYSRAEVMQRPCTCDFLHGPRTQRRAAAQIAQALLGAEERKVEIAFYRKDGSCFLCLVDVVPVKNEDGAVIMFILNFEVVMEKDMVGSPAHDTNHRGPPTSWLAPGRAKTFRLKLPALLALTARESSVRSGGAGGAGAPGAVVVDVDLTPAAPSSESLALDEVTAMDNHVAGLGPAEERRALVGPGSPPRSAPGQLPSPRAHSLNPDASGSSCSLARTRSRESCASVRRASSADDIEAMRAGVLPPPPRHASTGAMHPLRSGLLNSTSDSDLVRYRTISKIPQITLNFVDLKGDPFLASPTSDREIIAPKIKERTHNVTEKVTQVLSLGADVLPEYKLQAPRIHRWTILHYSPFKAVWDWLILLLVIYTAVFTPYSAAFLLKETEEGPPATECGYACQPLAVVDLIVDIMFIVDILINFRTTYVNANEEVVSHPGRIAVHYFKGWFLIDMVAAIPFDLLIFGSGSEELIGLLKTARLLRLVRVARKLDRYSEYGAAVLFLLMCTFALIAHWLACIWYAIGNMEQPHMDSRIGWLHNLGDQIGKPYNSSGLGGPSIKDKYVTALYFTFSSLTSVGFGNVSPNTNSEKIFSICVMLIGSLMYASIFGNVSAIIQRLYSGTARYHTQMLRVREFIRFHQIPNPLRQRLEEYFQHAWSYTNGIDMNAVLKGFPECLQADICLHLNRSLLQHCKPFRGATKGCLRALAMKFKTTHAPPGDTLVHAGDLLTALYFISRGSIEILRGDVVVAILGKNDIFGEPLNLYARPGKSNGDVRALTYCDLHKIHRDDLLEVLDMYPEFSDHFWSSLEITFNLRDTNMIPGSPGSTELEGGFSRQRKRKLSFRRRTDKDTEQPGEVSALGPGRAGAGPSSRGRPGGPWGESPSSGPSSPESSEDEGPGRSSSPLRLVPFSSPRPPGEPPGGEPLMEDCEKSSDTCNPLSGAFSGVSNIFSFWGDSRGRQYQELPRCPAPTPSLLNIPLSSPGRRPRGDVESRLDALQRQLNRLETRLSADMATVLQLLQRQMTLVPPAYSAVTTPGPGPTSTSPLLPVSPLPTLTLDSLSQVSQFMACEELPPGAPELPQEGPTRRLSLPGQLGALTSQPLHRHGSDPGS

IC50 (Plasmodium falciparum [1]): 1390 nM
IC50 (Plasmodium falciparum [2]): 1280 nM
Compound: CC(C)(N)C(=O)N1CCn2c(nc(-c3ccccc3F)c2Nc2ccc(F)cc2)C1

IC50 (Plasmodium falciparum [1]): 220 nM
IC50 (Plasmodium falciparum [2]): 244 nM
Compound: CC(C)(N)C(=O)N1CCn2c(nc(-c3ccc(F)cc3)c2Nc2cc(F)cc(F)c2)C1

IC50 (Plasmodium falciparum [1]): 1410 nM
IC50 (Plasmodium falciparum [2]): 3320 nM
Compound: CC(C)(N)C(=O)N1CCn2c(nc(-c3ccc(F)cc3)c2Nc2cccnc2)C1

IC50 (Plasmodium falciparum [1]): 50 nM
IC50 (Plasmodium falciparum [2]): 34 nM
Compound: NCC(=O)N1CCn2c(nc(-c3ccc(F)cc3)c2Nc2cccc(F)c2)C1

hepatic extraction ratio (in vitro [3]; liver microsomes): 0.55
Papp B→A (in vitro [4]): 1.25 ×10⁻⁶ cm/s
IC50 (Plasmodium falciparum [1]): 10 nM
permeability [5]: 52%
IC50 (Plasmodium falciparum [2]): 9 nM
hepatic extraction ratio (in vitro [6]; liver microsomes): 0.63
hepatic extraction ratio (in vitro [7]; liver microsomes): 0.17
Papp A→B (in vitro [8]): 0.44 ×10⁻⁶ cm/s
Compound: NCC(=O)N1CCn2c(nc(-c3ccc(F)cc3)c2Nc2ccc(Cl)cc2)C1

hepatic extraction ratio (in vitro [3]; liver microsomes): 0.21
Papp B→A (in vitro [4]): 2.99 ×10⁻⁶ cm/s
IC50 (Plasmodium falciparum [1]): 30 nM
IC50 (Plasmodium falciparum [2]): 23 nM
hepatic extraction ratio (in vitro [6]; liver microsomes): 0.38
hepatic extraction ratio (in vitro [7]; liver microsomes): 0.21
Papp A→B (in vitro [8]): 0.99 ×10⁻⁶ cm/s
Compound: NCC(=O)N1CCn2c(nc(-c3ccc(F)cc3)c2Nc2ccc(F)c(F)c2)C1

Compound: CC(C)(N)C(=O)N1CCn2c(nc(-c3ccc(F)cc3)c2Nc2ccc(Cl)c(F)c2)C1
bioavailability [9]: 24%
half-life (in vivo [10]): 9.1 h
Survival (Plasmodium berghei [11]): 7 days
clearance (in vivo [12]): 5.8 mL/min/kg
AUC(0-inf) (in vivo [13]): 25.5 µM·h
hepatic extraction ratio (in vitro [3]; microsomes): 0.48
Papp B→A (in vitro [4]): 0.87 ×10⁻⁶ cm/s
IC50 (Plasmodium falciparum [1]): 40 nM
permeability [5]: 94%
IC50 (Plasmodium falciparum [2]): 52 nM
Survival (Plasmodium berghei [14]): 11 days
Vd (in vivo [15]): 1.7 L/kg
hepatic extraction ratio (in vitro [6]; microsomes): 0.67
Tmax [16]: 2 h
IC50 [17]: 5600 nM
half-life (in vivo [18]): 7.8 h
AUC(0-inf) (in vivo [19]): 36.7 µM·h
Cmax [20]: 3320 nM
hepatic extraction ratio (in vitro [7]; microsomes): 0.76
Papp A→B (in vitro [8]): 0.84 ×10⁻⁶ cm/s
Activity (Plasmodium berghei [21]): 99.8%

IC50 (Plasmodium falciparum [1]): 110 nM
IC50 (Plasmodium falciparum [2]): 90 nM
Compound: CC(C)(N)C(=O)N1CCn2c(nc(-c3ccc(F)cc3)c2Nc2ccc(F)cc2F)C1

IC50 (Plasmodium falciparum [1]): 110 nM
IC50 (Plasmodium falciparum [2]): 121 nM
Compound: N[C@@H](Cc1ccccc1)C(=O)N1CCn2c(nc(-c3ccc(F)cc3)c2Nc2ccc(F)cc2)C1

IC50 (Plasmodium falciparum [1]): 70 nM
IC50 (Plasmodium falciparum [2]): 59 nM
Compound: N[C@H](Cc1ccccc1)C(=O)N1CCn2c(nc(-c3ccc(F)cc3)c2Nc2ccc(F)cc2)C1

IC50 (Plasmodium falciparum [1]): 200 nM
IC50 (Plasmodium falciparum [2]): 168 nM
Compound: CC(C)(N)C(=O)N1CCn2c(nc(-c3ccccc3)c2Nc2ccc(F)cc2)C1

IC50 (Plasmodium falciparum [1]): 660 nM
IC50 (Plasmodium falciparum [2]): 437 nM
Compound: NCC(=O)N1CCn2c(nc(-c3ccc(Cl)cc3)c2Nc2ccc(F)cc2)C1

IC50 (Plasmodium falciparum [1]): 2270 nM
IC50 (Plasmodium falciparum [2]): 1700 nM
Compound: COc1ccc(-c2nc3n(c2Nc2ccc(F)cc2)CCN(C(=O)CN)C3)cc1

IC50 (Plasmodium falciparum [1]): 3140 nM
IC50 (Plasmodium falciparum [2]): 3360 nM
Compound: Cc1ccc(-c2nc3n(c2Nc2ccc(F)cc2)CCN(C(=O)CN)C3)cc1

Compound: NCC(=O)N1CCn2c(nc(-c3cccc(F)c3)c2Nc2ccc(F)cc2)C1
bioavailability [9]: 18%
half-life (in vivo [10]): 1 h
Survival (Plasmodium berghei [11]): 6 days
clearance (in vivo [12]): 192 mL/min/kg
AUC(0-inf) (in vivo [13]): 1.23 µM·h
Activity (Plasmodium berghei [22]): 86%
Papp B→A (in vitro [4]): 2.32 ×10⁻⁶ cm/s
IC50 (Plasmodium falciparum [1]): 10 nM
IC50 (Plasmodium falciparum [2]): 30 nM
Survival (Plasmodium berghei [14]): 10 days
Vd (in vivo [15]): 21.6 L/kg
Tmax [16]: 2 h
IC50 [17]: > 30000 nM
half-life (in vivo [18]): 1.8 h
AUC(0-inf) (in vivo [19]): 1.33 µM·h
Cmax [20]: 417 nM
hepatic extraction ratio (in vitro [7]; liver microsomes): 0.31
Papp A→B (in vitro [8]): 0.56 ×10⁻⁶ cm/s
Activity (Plasmodium berghei [21]): 99.7%

IC50 (Plasmodium falciparum [1]): 60 nM
IC50 (Plasmodium falciparum [2]): 50 nM
Compound: Cc1ccc(Nc2c(-c3ccc(F)c(F)c3)nc3n2CCN(C(=O)C(C)(C)N)C3)cc1

IC50 (Plasmodium falciparum [1]): 9610 nM
IC50 (Plasmodium falciparum [2]): 5980 nM
Compound: CC(C)(N)C(=O)N1CCn2c(nc(-c3ccc(F)cc3)c2NC2CCCCC2)C1

IC50 (Plasmodium falciparum [1]): > 10 nM
IC50 (Plasmodium falciparum [2]): 5520 nM
Compound: Fc1ccc(Nc2c(-c3ccc(F)cc3)nc3cnccn23)cc1

IC50 (Plasmodium falciparum [1]): 200 nM
IC50 (Plasmodium falciparum [2]): 175 nM
Compound: Fc1ccc(Nc2c(-c3ccc(F)cc3)nc3n2CCNC3)cc1

bioavailability [9]: 15%
half-life (in vivo [10]): 4.2 h
clearance (in vivo [12]): 189 mL/min/kg
AUC(0-inf) (in vivo [13]): 1.07 µM·h
IC50 (Plasmodium falciparum [1]): 20 nM
permeability [5]: 52%
IC50 (Plasmodium falciparum [2]): 23 nM
Vd (in vivo [15]): 12.3 L/kg
Tmax [16]: 2 h
half-life (in vivo [18]): 2.7 h
AUC(0-inf) (in vivo [19]): 0.965 µM·h
Cmax [20]: 234 nM
Papp A→B (in vitro [8]): 0.7 ×10⁻⁶ cm/s
Compound: NCC(=O)N1CCn2c(nc(-c3ccc(F)cc3)c2Nc2ccc(F)cc2)C1

IC50 (Plasmodium falciparum [1]): 70 nM
IC50 (Plasmodium falciparum [2]): 75 nM
Compound: NCCC(=O)N1CCn2c(nc(-c3ccc(F)cc3)c2Nc2ccc(F)cc2)C1

IC50 (Plasmodium falciparum [1]): 90 nM
IC50 (Plasmodium falciparum [2]): 64 nM
Compound: C[C@H](N)C(=O)N1CCn2c(nc(-c3ccc(F)cc3)c2Nc2ccc(F)cc2)C1

IC50 (Plasmodium falciparum [1]): 30 nM
IC50 (Plasmodium falciparum [2]): 24 nM
Compound: CC(C)[C@H](N)C(=O)N1CCn2c(nc(-c3ccc(F)cc3)c2Nc2ccc(F)cc2)C1

IC50 (Plasmodium falciparum [1]): 235 nM
IC50 (Plasmodium falciparum [2]): 271 nM
Compound: NC(Cc1ccccc1)C(=O)N1CCn2c(nc(-c3ccccc3)c2Nc2ccc3c(c2)OCO3)C1 (racemic)
Selectivity Index [23]: >20
Selectivity Index [24]: >20
CC50 [25]: > 10000 nM

IC50 (Plasmodium falciparum [1]): 116 nM
IC50 (Plasmodium falciparum [2]): 119 nM
Compound: CC(C)CC(N)C(=O)N1CCn2c(nc(-c3ccccc3)c2Nc2ccc3c(c2)OCO3)C1 (racemic)
Selectivity Index [23]: >20
Selectivity Index [24]: >20
CC50 [25]: > 10000 nM

Compound: C[C@@H]1CC[C@H]2[C@@H](C)C(=O)O[C@@H]3O[C@@]4(C)CC[C@@H]1[C@]32OO4 [ARTEMISININ]
IC50 (Plasmodium falciparum [1]): 12 nM

Compound: C[C@H]1[C@H](OC(=O)CCC(=O)O)O[C@@H]2O[C@@]3(C)CC[C@H]4[C@H](C)CC[C@@H]1[C@@]24OO3 [ARTESUNATE]
Survival (Plasmodium berghei [11]): 7.2 days
Activity (Plasmodium berghei [22]): 89%
Survival (Plasmodium berghei [14]): 6.7 days
Activity (Plasmodium berghei [21]): 97%

Compound: CCN(CC)CCCC(C)Nc1ccnc2cc(Cl)ccc12 (centres undefined) [CHLOROQUINE]
Survival (Plasmodium berghei [26]): 18.8 days
Survival (Plasmodium berghei [11]): 8.7 days
Survival (Plasmodium berghei [14]): 12 days
Activity (Plasmodium berghei [21]): >99.9%

Compound: CCc1nc(N)nc(N)c1-c1ccc(Cl)cc1 [PYRIMETHAMINE]
IC50 (Plasmodium falciparum [2]): > 10000 nM
